Measured values from US20260262643A1, “HERBICIDAL BENZOXAZINES” (FMC CORPORATION, priority 2022, published 2026).

Columns and labels:
blackgrass [1] = experiment: Test A preemergence; assay type: in vivo, Alopecurus myosuroides
Summary of the method: (§1)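 Visual injury ratings on a 0–100 scale (100 = complete control) versus untreated controls, taken 10 days after treatment in greenhouse. Preemergence: directed soil spray onto seeded loam/sand. Postemergence: foliar application at one- to two-leaf stage, plants 2–10 cm. Formulation: non-phytotoxic solvent plus surfactant.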

corn [2] = experiment: Test A preemergence; assay type: in vivo, Zea mays
Summary of the method: as §1

foxtail, giant [3] = experiment: Test A preemergence; assay type: in vivo, Setaria faberi
Summary of the method: as §1

goosegrass [4] = experiment: Test A preemergence; assay type: in vivo, Eleusine indica
Summary of the method: as §1

kochia [5] = experiment: Test A preemergence; assay type: in vivo, Bassia scoparia
Summary of the method: as §1

oat, wild [6] = experiment: Test A preemergence; assay type: in vivo, Avena fatua
Summary of the method: as §1

pigweed, palmer [7] = experiment: Test A preemergence; assay type: in vivo, Amaranthus palmeri
Summary of the method: as §1

ragweed [8] = experiment: Test A preemergence; assay type: in vivo, Ambrosia artemisiifolia
Summary of the method: as §1

ryegrass, Italian [9] = experiment: Test A preemergence; assay type: in vivo, Lolium multiflorum
Summary of the method: as §1

soybean [10] = experiment: Test A preemergence; assay type: in vivo, Glycine max
Summary of the method: as §1

wheat [11] = experiment: Test A preemergence; assay type: in vivo, Triticum aestivum
Summary of the method: as §1

blackgrass [12] = experiment: Test A postemergence; assay type: in vivo, Alopecurus myosuroides
Summary of the method: as §1

corn [13] = experiment: Test A postemergence; assay type: in vivo, Zea mays
Summary of the method: as §1

foxtail, giant [14] = experiment: Test A postemergence; assay type: in vivo, Setaria faberi
Summary of the method: as §1

goosegrass [15] = experiment: Test A postemergence; assay type: in vivo, Eleusine indica
Summary of the method: as §1

kochia [16] = experiment: Test A postemergence; assay type: in vivo, Bassia scoparia
Summary of the method: as §1

oat, wild [17] = experiment: Test A postemergence; assay type: in vivo, Avena fatua
Summary of the method: as §1

pigweed, palmer [18] = experiment: Test A postemergence; assay type: in vivo, Amaranthus palmeri
Summary of the method: as §1

ragweed [19] = experiment: Test A postemergence; assay type: in vivo, Ambrosia artemisiifolia
Summary of the method: as §1

ryegrass, Italian [20] = experiment: Test A postemergence; assay type: in vivo, Lolium multiflorum
Summary of the method: as §1

soybean [21] = experiment: Test A postemergence; assay type: in vivo, Glycine max
Summary of the method: as §1

wheat [22] = experiment: Test A postemergence; assay type: in vivo, Triticum aestivum
Summary of the method: as §1

galium = experiment: Test A postemergence; assay type: in vivo, Galium aparine
Summary of the method: as §1

horseweed = experiment: Test A postemergence; assay type: in vivo, Erigeron canadensis
Summary of the method: as §1

barnyardgrass = experiment: Test B flooded paddy test; assay type: in vivo, Echinochloa crus-galli; conditions: 250 g ai/ha, Flood, 13 days, 0 to 100 scale (0 no effect, 100 complete control)
Summary of the method: (§2)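 Species grown to 2-leaf stage; pots flooded 3 cm above soil and compound applied directly to paddy water, depth maintained throughout. After 13 days in greenhouse, plants visually rated against controls on 0–100 scale (0 no effect, 100 complete control); dash means no result.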

ducksalad = experiment: Test B flooded paddy test; assay type: in vivo, Heteranthera limosa; conditions: 250 g ai/ha, Flood, 13 days, 0 to 100 scale (0 no effect, 100 complete control)
Summary of the method: as §2

rice = experiment: Test B flooded paddy test; assay type: in vivo, Oryza sativa; conditions: 250 g ai/ha, Flood, 13 days, 0 to 100 scale (0 no effect, 100 complete control)
Summary of the method: as §2

sedge, umbrella = experiment: Test B flooded paddy test; assay type: in vivo, Cyperus difformis; conditions: 250 g ai/ha, Flood, 13 days, 0 to 100 scale (0 no effect, 100 complete control)
Summary of the method: as §2

[23] = 125 g ai/ha, visual injury after 10 days, 0 to 100 scale, 0 is no effect, 100 is complete control
[24] = 500 g ai/ha, 0 to 100 scale (0 no effect, 100 complete control), 10 days
[25] = 125 g ai/ha, postemergence, 10 days, visual injury, 0 to 100 scale (0 no effect, 100 complete control)
[26] = 500 g ai/ha, Postemergence, 0 to 100 scale

Cc1cccc2c1O[C@@H](C)CN2C(=O)c1ccc(F)c(-n2cncn2)c1 [Compound 52]
10: Plant response rating, Kochia (kochia [16]; [25]) | Plant response rating, Rice (rice)
40: Plant response rating, Corn (corn [2]; [24]) | Plant response rating, Oat, Wild (oat, wild [6]; [23]) | Plant response rating, Corn (corn [13]; [25]) | Plant response rating, Ryegrass, Italian (ryegrass, Italian [20]; [25])
25: Plant response rating, Barnyardgrass (barnyardgrass)
20: Plant response rating, Corn (corn [2]; [23]) | Plant response rating, Oat, Wild (oat, wild [17]; [25])
70: Plant response rating, Kochia (kochia [5]; [24]) | Plant response rating, Ragweed (ragweed [8]; [24]) | Plant response rating, Corn (corn [13]; [26])
90: Plant response rating, Foxtail, Giant (foxtail, giant [3]; [23]) | Plant response rating, Goosegrass (goosegrass [4]; [23]) | Plant response rating, Soybean (soybean [10]; [24]) | Plant response rating, Foxtail, Giant (foxtail, giant [14]; [26]) | Plant response rating, Galium (galium; [26])
0: Plant response rating, Kochia (kochia [5]; [23]) | Plant response rating, Pigweed, Palmer (pigweed, palmer [7]; [23]) | Plant response rating, Ragweed (ragweed [8]; [23]) | Plant response rating, Ragweed (ragweed [19]; [25]) | Plant response rating, Horseweed (horseweed; [25]) | Plant response rating, Horseweed (horseweed; [26])
50: Plant response rating, Blackgrass (blackgrass [1]; [23]) | Plant response rating, Blackgrass (blackgrass [12]; [25]) | Plant response rating, Goosegrass (goosegrass [15]; [25]) | Plant response rating, Ducksalad (ducksalad)
75: Plant response rating, Sedge, Umbrella (sedge, umbrella)
60: Plant response rating, Blackgrass (blackgrass [1]; [24]) | Plant response rating, Wheat (wheat [11]; [24]) | Plant response rating, Blackgrass (blackgrass [12]; [26]) | Plant response rating, Foxtail, Giant (foxtail, giant [14]; [25]) | Plant response rating, Goosegrass (goosegrass [15]; [26]) | Plant response rating, Kochia (kochia [16]; [26]) | Plant response rating, Pigweed, Palmer (pigweed, palmer [18]; [26]) | Plant response rating, Wheat (wheat [22]; [26])
80: Plant response rating, Oat, Wild (oat, wild [6]; [24]) | Plant response rating, Ryegrass, Italian (ryegrass, Italian [9]; [23]) | Plant response rating, Oat, Wild (oat, wild [17]; [26]) | Plant response rating, Ryegrass, Italian (ryegrass, Italian [20]; [26])
100: Plant response rating, Foxtail, Giant (foxtail, giant [3]; [24]) | Plant response rating, Goosegrass (goosegrass [4]; [24]) | Plant response rating, Pigweed, Palmer (pigweed, palmer [7]; [24]) | Plant response rating, Ryegrass, Italian (ryegrass, Italian [9]; [24]) | Plant response rating, Soybean (soybean [21]; [25]) | Plant response rating, Soybean (soybean [21]; [26])
30: Plant response rating, Soybean (soybean [10]; [23]) | Plant response rating, Wheat (wheat [11]; [23]) | Plant response rating, Pigweed, Palmer (pigweed, palmer [18]; [25]) | Plant response rating, Ragweed (ragweed [19]; [26]) | Plant response rating, Wheat (wheat [22]; [25]) | Plant response rating, Galium (galium; [25])

Cc1cccc2c1O[C@@H](C)CN2C(=O)c1cccc(-n2cncn2)c1F [Compound 53]
70: Plant response rating, Ryegrass, Italian (ryegrass, Italian [9]; [24])
50: Plant response rating, Soybean (soybean [21]; [26])
30: Plant response rating, Ryegrass, Italian (ryegrass, Italian [9]; [23]) | Plant response rating, Pigweed, Palmer (pigweed, palmer [18]; [26])
0: Plant response rating, Blackgrass (blackgrass [1]; [23]) | Plant response rating, Blackgrass (blackgrass [1]; [24]) | Plant response rating, Corn (corn [2]; [23]) | Plant response rating, Corn (corn [2]; [24]) | Plant response rating, Foxtail, Giant (foxtail, giant [3]; [23]) | Plant response rating, Foxtail, Giant (foxtail, giant [3]; [24]) | Plant response rating, Goosegrass (goosegrass [4]; [23]) | Plant response rating, Kochia (kochia [5]; [23]) | Plant response rating, Oat, Wild (oat, wild [6]; [23]) | Plant response rating, Oat, Wild (oat, wild [6]; [24]) | Plant response rating, Pigweed, Palmer (pigweed, palmer [7]; [23]) | Plant response rating, Pigweed, Palmer (pigweed, palmer [7]; [24]) | Plant response rating, Ragweed (ragweed [8]; [23]) | Plant response rating, Ragweed (ragweed [8]; [24]) | Plant response rating, Soybean (soybean [10]; [23]) | Plant response rating, Soybean (soybean [10]; [24]) | Plant response rating, Wheat (wheat [11]; [23]) | Plant response rating, Blackgrass (blackgrass [12]; [25]) | Plant response rating, Corn (corn [13]; [25]) | Plant response rating, Corn (corn [13]; [26]) | Plant response rating, Foxtail, Giant (foxtail, giant [14]; [25]) | Plant response rating, Kochia (kochia [16]; [25]) | Plant response rating, Oat, Wild (oat, wild [17]; [25]) | Plant response rating, Oat, Wild (oat, wild [17]; [26]) | Plant response rating, Pigweed, Palmer (pigweed, palmer [18]; [25]) | Plant response rating, Ragweed (ragweed [19]; [25]) | Plant response rating, Ragweed (ragweed [19]; [26]) | Plant response rating, Ryegrass, Italian (ryegrass, Italian [20]; [25]) | Plant response rating, Ryegrass, Italian (ryegrass, Italian [20]; [26]) | Plant response rating, Wheat (wheat [22]; [25]) | Plant response rating, Wheat (wheat [22]; [26]) | Plant response rating, Galium (galium; [25]) | Plant response rating, Galium (galium; [26]) | Plant response rating, Horseweed (horseweed; [25]) | Plant response rating, Horseweed (horseweed; [26]) | Plant response rating, Barnyardgrass (barnyardgrass) | Plant response rating, Ducksalad (ducksalad) | Plant response rating, Rice (rice) | Plant response rating, Sedge, Umbrella (sedge, umbrella)
40: Plant response rating, Goosegrass (goosegrass [4]; [24]) | Plant response rating, Goosegrass (goosegrass [15]; [26])
10: Plant response rating, Wheat (wheat [11]; [24]) | Plant response rating, Foxtail, Giant (foxtail, giant [14]; [26]) | Plant response rating, Kochia (kochia [16]; [26])
20: Plant response rating, Kochia (kochia [5]; [24]) | Plant response rating, Blackgrass (blackgrass [12]; [26]) | Plant response rating, Goosegrass (goosegrass [15]; [25]) | Plant response rating, Soybean (soybean [21]; [25])

Cc1cccc2c1O[C@@H](C)CN2C(=O)c1cccc(-n2cnc(C3CC3)n2)c1 [Compound 54]
60: Plant response rating, Corn (corn [2]; [24]) | Plant response rating, Pigweed, Palmer (pigweed, palmer [7]; [23]) | Plant response rating, Pigweed, Palmer (pigweed, palmer [18]; [26]) | Plant response rating, Ryegrass, Italian (ryegrass, Italian [20]; [26])
25: Plant response rating, Barnyardgrass (barnyardgrass)
90: Plant response rating, Foxtail, Giant (foxtail, giant [3]; [23]) | Plant response rating, Goosegrass (goosegrass [4]; [23]) | Plant response rating, Kochia (kochia [5]; [24]) | Plant response rating, Foxtail, Giant (foxtail, giant [14]; [26]) | Plant response rating, Kochia (kochia [16]; [26]) | Plant response rating, Sedge, Umbrella (sedge, umbrella)
20: Plant response rating, Oat, Wild (oat, wild [6]; [23]) | Plant response rating, Wheat (wheat [11]; [23]) | Plant response rating, Oat, Wild (oat, wild [17]; [25]) | Plant response rating, Wheat (wheat [22]; [25]) | Plant response rating, Horseweed (horseweed; [26])
40: Plant response rating, Blackgrass (blackgrass [1]; [23]) | Plant response rating, Soybean (soybean [10]; [24]) | Plant response rating, Corn (corn [13]; [26]) | Plant response rating, Goosegrass (goosegrass [15]; [25]) | Plant response rating, Oat, Wild (oat, wild [17]; [26]) | Plant response rating, Wheat (wheat [22]; [26])
30: Plant response rating, Corn (corn [2]; [23]) | Plant response rating, Wheat (wheat [11]; [24]) | Plant response rating, Corn (corn [13]; [25]) | Plant response rating, Ryegrass, Italian (ryegrass, Italian [20]; [25]) | Plant response rating, Ducksalad (ducksalad) | Plant response rating, Rice (rice)
70: Plant response rating, Ryegrass, Italian (ryegrass, Italian [9]; [23]) | Plant response rating, Foxtail, Giant (foxtail, giant [14]; [25])
0: Plant response rating, Ragweed (ragweed [8]; [23]) | Plant response rating, Ragweed (ragweed [8]; [24]) | Plant response rating, Soybean (soybean [10]; [23]) | Plant response rating, Blackgrass (blackgrass [12]; [25]) | Plant response rating, Ragweed (ragweed [19]; [25]) | Plant response rating, Horseweed (horseweed; [25])
80: Plant response rating, Blackgrass (blackgrass [1]; [24]) | Plant response rating, Kochia (kochia [5]; [23]) | Plant response rating, Kochia (kochia [16]; [25])
100: Plant response rating, Foxtail, Giant (foxtail, giant [3]; [24]) | Plant response rating, Goosegrass (goosegrass [4]; [24]) | Plant response rating, Pigweed, Palmer (pigweed, palmer [7]; [24]) | Plant response rating, Ryegrass, Italian (ryegrass, Italian [9]; [24]) | Plant response rating, Soybean (soybean [21]; [25]) | Plant response rating, Soybean (soybean [21]; [26]) | Plant response rating, Galium (galium; [25]) | Plant response rating, Galium (galium; [26])
50: Plant response rating, Oat, Wild (oat, wild [6]; [24]) | Plant response rating, Blackgrass (blackgrass [12]; [26]) | Plant response rating, Goosegrass (goosegrass [15]; [26]) | Plant response rating, Pigweed, Palmer (pigweed, palmer [18]; [25]) | Plant response rating, Ragweed (ragweed [19]; [26])
